In PubChem BioAssay AID1996:
≈ marks a conversion by molar mass, not a printed value.

Settings: buffer; pH 7.4; 200.0 µM
`Cc1ccc(CSCC(=O)NCCc2ccccc2)cc1` gave a solubility kinetic of 40.9 µg/mL (≈ 137 µM). With `CNC(=S)N1CCn2cccc2C1c1cccnc1` (configuration not stated) the solubility kinetic was 40.8 µg/mL (≈ 150 µM). In the case of `CCCCn1cnc2c(oc3nc4c(cc32)CCCC4)c1=O`, the solubility kinetic is reported as 20.6 µg/mL (≈ 69.3 µM). Compound `Cc1cc(OCC(=O)NC2CC2)c2c(C)c(C)c(=O)oc2c1` has a solubility kinetic of 2.5 µg/mL (≈ 8.3 µM). In the case of `CC1(C)NC(=O)N(CCC(=O)Nc2cc(C(F)(F)F)ccc2Cl)C1=O`, the solubility kinetic is reported as > 56.7 µg/mL. `Cc1cc(C(=O)COC(=O)c2cnccn2)c(C)n1-c1ccc(Br)cc1` showed a solubility kinetic of 4.1 µg/mL (≈ 9.9 µM). With `Nc1nc(NCc2ccco2)nc(NCCO)c1[N+](=O)[O-]` the solubility kinetic was > 44.1 µg/mL. For `NC(=O)C1CCCN(C(=S)NCc2ccc3c(c2)OCO3)C1` (configuration not stated), the solubility kinetic was > 48.2 µg/mL. For `CN1CCCC(OC(=O)c2ccc(C#N)cc2)C1.Cl` (configuration not stated), the solubility kinetic was > 42.1 µg/mL. Work on `O=C(NC1CCCCCC1)C(=S)N1CCOCC1` yielded a solubility kinetic of 23.1 µg/mL (≈ 85.4 µM). Work on `Cc1cc(C)cc(C(=O)NCC(=O)OCC(=O)N2CCCCC2)c1` yielded a solubility kinetic of 49.3 µg/mL (≈ 148 µM). Work on `COCC(=O)N(Cc1nc2sc(C)c(C)c2c(=O)[nH]1)C1CCCCC1` yielded a solubility kinetic of 47.4 µg/mL (≈ 130 µM). With `CC(C)S(=O)(=O)c1cnc(N2CCOCC2)nc1N` the solubility kinetic was > 43 µg/mL. In the case of `CC(C)CCNc1nc(N)c([N+](=O)[O-])c(N2CCCCCC2)n1`, the solubility kinetic is reported as 0.5 µg/mL (≈ 1.55 µM). With `COc1ccccc1CN1C(=O)CNC1=S` the solubility kinetic was > 35.4 µg/mL. `O=[N+]([O-])c1ccc(Oc2cccc3cccnc23)c(Cl)c1` showed a solubility kinetic of 14.1 µg/mL (≈ 46.9 µM). `Cc1cc(C)c(C)c(OCCn2ccnc2)c1` showed a solubility kinetic of 31.4 µg/mL (≈ 136 µM). Compound `CC(C)(C)c1ccccc1OCC(=O)NCc1ccccc1` has a solubility kinetic of 1.8 µg/mL (≈ 6.05 µM). Work on `COc1ccc2c(=O)c(C(=O)NCc3ccccc3)c[nH]c2c1` yielded a solubility kinetic of 2.3 µg/mL (≈ 7.46 µM). With `CCSC1=NCCN1C(=O)Cc1ccc(-c2ccccc2)cc1` the solubility kinetic was 3.3 µg/mL (≈ 10.2 µM). For `Cc1cc(C)c(C(=O)O)c(Cl)n1`, the solubility kinetic was > 27.8 µg/mL. For `CCOC(=O)c1ccc(NC(=S)Nc2cccc(N)n2)cc1`, the solubility kinetic was 2.3 µg/mL (≈ 7.27 µM). For `O=C(Nc1ccc(N2CCCC2)cc1)c1ccccc1[N+](=O)[O-]`, the solubility kinetic was 2.4 µg/mL (≈ 7.71 µM). With `CC(Oc1ccc2c(-c3ccccc3)cc(=O)oc2c1)C(=O)N1CCOCC1` (configuration not stated) the solubility kinetic was > 56.9 µg/mL. `O=C(N/C(=C\c1ccco1)C(=O)N1CCCCC1)c1ccc([N+](=O)[O-])cc1` gave a solubility kinetic of 3.6 µg/mL (≈ 9.75 µM). Compound `O=C(CN1C(=O)NC2(CCCCCC2)C1=O)Nc1ccc(Cl)c([N+](=O)[O-])c1` has a solubility kinetic of 5.8 µg/mL (≈ 14.7 µM). In the case of `CC(=O)N1CCN(c2nc3ccc(Br)cc3s2)CC1`, the solubility kinetic is reported as 7.9 µg/mL (≈ 23.2 µM). Compound `O=C(COc1ccccc1)N1CCCC1` has a solubility kinetic of 26.7 µg/mL (≈ 130 µM). Compound `Nc1ccc(Oc2ccc(F)cc2)nc1` has a solubility kinetic of 27.6 µg/mL (≈ 135 µM). `CCOc1ccc(Br)cc1S(=O)(=O)Nc1cccnc1` gave a solubility kinetic of 1.4 µg/mL (≈ 3.92 µM). With `O=C(O)CCNC(=O)c1ccccc1` the solubility kinetic was > 29 µg/mL. With `O=C(COC(=O)CCc1nc2ccccc2c(=O)[nH]1)Nc1ccccc1` the solubility kinetic was > 52.7 µg/mL. Work on `Cc1ccc(NC(=O)NCc2nc3ccccc3n2C)cc1` yielded a solubility kinetic of 34.8 µg/mL (≈ 118 µM). Compound `CC(C)NC(=O)CCc1nc2cccnc2n1-c1ccccc1` has a solubility kinetic of 43.3 µg/mL (≈ 140 µM). With `NC(=O)c1cccc(-c2cccc(OC(=O)NC3CCCCC3)c2)c1` the solubility kinetic was < 0.4 µg/mL. `Cc1ccc(-c2noc(N=O)c2NO)cc1` gave a solubility kinetic of 31.5 µg/mL (≈ 144 µM). With `O=C(OCC(=O)N1CCN(C(=O)c2ccco2)CC1)c1c(Cl)cccc1Cl` the solubility kinetic was > 61.7 µg/mL. `CC(=O)c1cccc(NC(=O)c2cc(=O)[nH]c3ccccc23)c1` showed a solubility kinetic of 12.5 µg/mL (≈ 40.8 µM). Work on `Cc1cccc(NC(=O)c2cc(-c3ccccn3)nc3ccccc23)c1C` yielded a solubility kinetic of 3.5 µg/mL (≈ 9.9 µM). With `CCN(C(=O)COC(=O)c1[nH]c(=O)[nH]c(=O)c1N)c1ccccc1` the solubility kinetic was 39.3 µg/mL (≈ 118 µM). In the case of `CN1C(=O)NC(c2cccc(F)c2)C2=C1CC(C)(C)CC2=O` (configuration not stated), the solubility kinetic is reported as > 45.4 µg/mL. In the case of `COc1cc(C(=O)Oc2cccnc2)cc(OC)c1OC.Cl`, the solubility kinetic is reported as > 48.9 µg/mL. Compound `COc1ccc(Nc2c3c(nc4ccc(C)cc24)CCC3)cc1.Cl` has a solubility kinetic of 36.6 µg/mL. For `CCOc1ncccc1C(=O)OC(C)C(=O)Nc1ccc(N2CCOCC2)cc1` (configuration not stated), the solubility kinetic was 27.5 µg/mL (≈ 68.8 µM). For `Cc1ccc(NC(=O)C(c2ccccc2)c2ccccc2)nc1`, the solubility kinetic was 11.5 µg/mL (≈ 38 µM). With `O=C1COc2ccc(C(=O)COC(=O)CCOc3ccccc3)cc2N1` the solubility kinetic was 10.1 µg/mL (≈ 28.4 µM). `CC1Oc2ccccc2N(Cc2ccc(F)cc2)C1=O` (configuration not stated) showed a solubility kinetic of 23.4 µg/mL (≈ 86.3 µM).
